Counter-ions that a name gives are not always drawn. Like-named read-outs stand apart in the source and are kept apart here.
What was measured:
Msep5-HT7L receptor [1] = target: T1, Msep5-HT7L receptor (Mythimna separata, UniProt A0AAD7YHG5); assay: cAMP assay, agonist activation of Msep5-HT7L in stably transfected HEK293 cells; assay type: cell-based; design: Emax: dose or concentration left out as unconfirmed; settings: for effect on intracellular cAMP levels: 10 μM, HEK293 cells expressing Msep5-HT7L; for Emax: HEK293, read-out: activation compared with maximum cAMP stimulation by same concentration of 5-HT
Protocol: (§1) HEK-293 cells were cultured in D-MEM (Gibco BRL, Gaithersburg, MD, USA) supplemented with 10% FBS (Gibco BRL, Gaithersburg, MD, USA) at 37 °C and 5% CO2. Four microgram recombinant plasmids with 10 μL of lipofectamine 2000 (Invitrogen, Carlsbad, CA, USA) were introduced into exponentially growing HEK 293 cells. The 0.8 mg/mL antibiotic G418 (Sigma, St. Louis, MO, USA) was added to the medium to select for cells that were stably expressed the Msep5-HT7 receptors. After fourteen days of G418 selection, three G418-resistant colonies were trypsinized in cloning cylinders and transferred to 12-well plastic plates for expansion.
(§2) Intracellular cAMP concentrations were measured as previously described. Briefly, when cells were cultured for 2 days to the concentration of 1 × 10^6 cells/mL, culture media were removed and the cells were washed two times with cold PBS (pH 7.4), then the cells were preincubated in 450 μL of Dulbecco’s phosphate-buffered solution (DPBS) containing 100 μM phosphodiesterase inhibitor 3-isobutyl-1-methylxanthine (IBMX) for 20 min at room temperature. After the preincubation, 50 μL of DPBS, containing various concentrations of reagents, was added into the stable transfected cells for incubation for 30 min at 37 °C. The cells were washed three times with cold PBS (pH 7.4) and then lysed in 250 μL of cold cell lysis buffer by re-freezing. The cell debris was removed by centrifugation at 600× g for 10 min at 4 °C. The amount of intracellular cAMP extracted from harvested supernatant was determined using an ELISA reagent (R&D Systems, Minneapolis, MN, USA). Each measurement was performed in duplicate, and three independent assays were carried out for each reagent and concentration tested.

Msep5-HT7S receptor [2] = target: T2, Msep5-HT7S receptor (Mythimna separata, UniProt A0AAD7YHG5, DEL320-414); assay: cell-based; assay type: cell-based; design: Emax: dose or concentration left out as unconfirmed; settings: for Emax: HEK293, read-out: activation compared with maximum cAMP stimulation by 5-HT; for fold higher agonist potency against Msep5-HT7S than Msep5-HT7L: ratio of EC50 values
Protocol: as §1, §2

Msep5-HT7L receptor [3] = target: T1, Msep5-HT7L receptor; assay: cAMP assay, antagonist block of 5-HT-induced response in HEK293 cells expressing Msep5-HT7L; assay type: cell-based; settings: against 5 μM 5-HT
Protocol: as §1, §2

Msep5-HT7L receptor [4] = assay: as above; assay type: cell-based; settings: for decrease of 5-HT induced response: 40 μM antagonist (8-fold) with 5 μM 5-HT, range stated for all antagonists and both isoforms; for antagonist potency or efficacy, Msep5-HT7L compared with Msep5-HT7S: inhibition of 5-HT-induced cAMP production, based on 95% fiducial limits
Protocol: as §1, §2

Msep5-HT7S receptor [5] = target: T2, Msep5-HT7S receptor; assay: cAMP assay, antagonist block of 5-HT-induced response in HEK293 cells expressing Msep5-HT7S; assay type: cell-based; settings: for inhibition at 40 µM: HEK293, read-out: decrease of 5-HT induced response
Protocol: as §1, §2

5-HT7 receptor [6] = settings: 5-HT7 receptor from T. castaneum; ref [36]; cited from earlier work
Msep5-HT7L receptor [7] = assay: cAMP assay, agonist activation of Msep5-HT7L in stably transfected HEK293 cells; assay type: cell-based, Mythimna separata; design: Emax: dose or concentration left out as unconfirmed; settings: ratio of EC50 values
Protocol: as §1, §2

5-HT7 receptor [8] = settings: 5-HT7 receptor from A. mellifera; ref [17],[27]; cited from earlier work
5-HT1 receptor = target: 5-HT1 receptor; design: method as in PMID 23741451, PMID 16945110; settings: 5-HT1 receptor from T. castaneum; ref [17],[27]; cited from earlier work
5-HT7 receptor [9] = assay: literature pharmacology of C. vicina 5-HT7 receptor; settings: 5-HT7 receptor from C. vicina vs the two Msep5-HT7 isoforms
5-HT7 receptor [10] = settings: 5-HT7 receptor from T. castaneum vs the two Msep5-HT7 isoforms
5-HT7 receptor [11] = settings: 5-HT7 receptor from C. vicina; ref [28],[36],[46]; cited from earlier work
[12] = tested on: larvae of Mythimna separata; design: method as in PMID 20000410; settings: ref [22]; cited from earlier work
[13] = 10 μM, HEK293 cells expressing Msep5-HT7S
[14] = EC50, 5-HT7L, cAMP production, HEK-293 cells
[15] = logEC50 (Mean ± SEM), 5-HT7L, cAMP production, HEK-293 cells, given as negative log value
[16] = EC50, 5-HT7S, cAMP production, HEK-293 cells
[17] = logEC50 (Mean ± SEM), 5-HT7S, cAMP production, HEK-293 cells, given as negative log value
[18] = logIC50 (Mean ± SEM), 5-HT7L, given as negative log value
[19] = IC50, 5-HT7S, against 5 μM 5-HT, HEK-293 cells
[20] = logIC50 (Mean ± SEM), 5-HT7S, against 5 μM 5-HT, given as negative log value

T2 sequence (A0AAD7YHG5 entry or part of it DEL320-414): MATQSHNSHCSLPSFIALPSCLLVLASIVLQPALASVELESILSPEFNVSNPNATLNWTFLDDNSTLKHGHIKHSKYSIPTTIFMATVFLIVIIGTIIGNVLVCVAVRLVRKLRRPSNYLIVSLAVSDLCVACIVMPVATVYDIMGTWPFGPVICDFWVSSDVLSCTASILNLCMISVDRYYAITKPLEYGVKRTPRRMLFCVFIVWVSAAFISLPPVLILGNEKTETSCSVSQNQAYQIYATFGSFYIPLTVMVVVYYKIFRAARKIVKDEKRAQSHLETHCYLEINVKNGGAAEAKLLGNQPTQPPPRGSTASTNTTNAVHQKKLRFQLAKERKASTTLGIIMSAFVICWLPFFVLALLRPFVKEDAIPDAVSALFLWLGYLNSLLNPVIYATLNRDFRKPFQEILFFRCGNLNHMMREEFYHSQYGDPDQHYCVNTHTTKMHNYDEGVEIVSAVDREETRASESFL
T1 sequence (A0AAD7YHG5 entry or part of it): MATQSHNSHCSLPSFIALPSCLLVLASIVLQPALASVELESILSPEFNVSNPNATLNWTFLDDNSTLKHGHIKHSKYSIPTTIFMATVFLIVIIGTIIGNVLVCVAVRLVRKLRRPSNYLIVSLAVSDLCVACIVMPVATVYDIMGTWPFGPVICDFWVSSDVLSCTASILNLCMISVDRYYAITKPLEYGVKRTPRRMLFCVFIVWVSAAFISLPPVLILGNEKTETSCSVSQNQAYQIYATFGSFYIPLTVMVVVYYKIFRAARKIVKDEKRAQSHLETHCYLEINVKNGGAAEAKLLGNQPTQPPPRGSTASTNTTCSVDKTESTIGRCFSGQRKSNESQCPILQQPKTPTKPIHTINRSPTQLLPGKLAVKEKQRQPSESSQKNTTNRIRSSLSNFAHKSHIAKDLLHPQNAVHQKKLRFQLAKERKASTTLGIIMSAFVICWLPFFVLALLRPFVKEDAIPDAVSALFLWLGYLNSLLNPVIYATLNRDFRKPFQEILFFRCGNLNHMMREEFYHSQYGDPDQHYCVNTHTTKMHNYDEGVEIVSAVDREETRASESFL

| Structure (SMILES) | effect on intracellular cAMP levels (Msep5-HT7L receptor [1]) | effect on intracellular cAMP levels (Msep5-HT7S receptor [2]; [13]) | decrease of 5-HT induced response (Msep5-HT7L receptor [4]) | antagonist potency or efficacy, Msep5-HT7L compared with Msep5-HT7S (Msep5-HT7L receptor [4]) | IC50 (Msep5-HT7L receptor [3]; IC50, 5-HT7L, HEK-293 cells) [µM] | IC50 (Msep5-HT7L receptor [3]; [18]) [µM] | inhibition at 40 µM (Msep5-HT7S receptor [5]) [%] | IC50 (Msep5-HT7S receptor [5]; [19]) [µM] | IC50 (Msep5-HT7S receptor [5]; [20]) [µM] | other results |
| --- | --- | --- | --- | --- | --- | --- | --- | --- | --- | --- |
| NCCc1c[nH]c2ccc(O)cc12 [5-HT, serotonin hydrochloride] | significantly increased cAMP levels | significantly increased cAMP levels |  |  |  |  |  |  |  |  |
| COc1ccccc1N1CCN(CCN(C(=O)C2CCCCC2)c2ccccn2)CC1 [WAY-100635] |  |  | 33–60% | higher antagonistic activity |  |  |  |  |  | IC50 (Msep5-HT7L receptor [3]; 5-HT7L, HEK-293 cells, read-out: IC50): 36.1 µM; logIC50 (Mean ± SEM) (Msep5-HT7L receptor [3]; 5-HT7L, given as negative log value): −4.44 ± 0.04; IC50 (Msep5-HT7S receptor [5]; 5-HT7S, against 5 μM 5-HT, HEK-293 cells, read-out: IC50): 70.3 µM; logIC50 (Mean ± SEM) (Msep5-HT7S receptor [5]; 5-HT7S, against 5 μM 5-HT, given as negative log value): −4.15 ± 0.02; IC50 (5-HT7 receptor [6]): 76.8 µM |
| CCCN(CCC)C1CCc2cccc(O)c2C1 (racemic) [8-OH-DPAT, (±)-8-hydroxy-2-(dipropylamino) tetralin hydrobromide] | activated | only αm-5-HT significantly increased cAMP levels |  |  |  |  |  |  |  | EC50 (Msep5-HT7L receptor [1]; [14]): 10.1 µM; Emax (Msep5-HT7L receptor [1]): < 30%; EC50 (Msep5-HT7L receptor [1]; [15]): 10 µM; fold higher agonist potency against Msep5-HT7L than Msep5-HT7S (Msep5-HT7L receptor [7]): 2.4 fold; EC50 (Msep5-HT7S receptor [2]; [16]): 24.8 µM; Emax (Msep5-HT7S receptor [2]): < 30%; EC50 (Msep5-HT7S receptor [2]; [17]): 24.5 µM; efficacy fold lower than 5-HT (5-HT7 receptor [6]): about 2 fold; potency fold lower than 5-HT (5-HT7 receptor [6]): more than 190 fold |
| COc1ccc2[nH]cc(CCN)c2c1 [5-MT, 5-methoxytryptamine] | activated | only αm-5-HT significantly increased cAMP levels |  |  |  |  |  |  |  | EC50 (Msep5-HT7L receptor [1]; [14]): 20.9 µM; Emax (Msep5-HT7L receptor [1]): ~69%; EC50 (Msep5-HT7L receptor [1]; [15]): 20.9 µM; EC50 (Msep5-HT7S receptor [2]; [16]): 19.4 µM; Emax (Msep5-HT7S receptor [2]): ~35%; EC50 (Msep5-HT7S receptor [2]; [17]): 19.5 µM; fold higher agonist potency against Msep5-HT7S than Msep5-HT7L (Msep5-HT7S receptor [2]): roughly equivalent; efficacy fold lower than 5-HT (5-HT7 receptor [6]): about 2 fold; potency fold lower than 5-HT (5-HT7 receptor [6]): more than 190 fold |
| CC1CCN(CC[C@H]2CCCN2S(=O)(=O)c2cccc(O)c2)CC1 [SB-269970, (R)-3-(2-(2-(4-methylpiperidin-1-yl)ethyl)pyrrolidine-1-sulfonyl) phenol] |  |  | 33–60% | no significant differences | 70.4 | 70.8 | 33 to 60 | 67.8 | 67.6 | antagonistic effect (5-HT7 receptor [8]): poor antagonistic effect; IC50 (5-HT1 receptor): 205 µM |
| O=C(c1ccc(F)cc1)C1CCN(CCn2c(=O)[nH]c3ccccc3c2=O)CC1 [Ketanserin] |  |  | 33–60% | higher antagonistic activity | 46.9 | 46.8 | 33 to 60 | 84.9 | 85.1 | fold higher inhibitory potency than against Msep5-HT7L and Msep5-HT7S (5-HT7 receptor [9]): 20- to 50 fold; fold higher inhibitory potency than against Msep5-HT7L and Msep5-HT7S (5-HT7 receptor [10]): 20- to 50 fold; IC50 (5-HT7 receptor [6]): 1.95 µM; IC50 (5-HT7 receptor [11]): 1.5 µM |
| NCCc1ccc(O)c(O)c1 [dopamine, dopamine hydrochloride] | only 5-HT significantly increased cAMP levels |  |  |  |  |  |  |  |  | effect on intracellular cAMP levels (Msep5-HT7S receptor [2]): only 5-HT significantly increased cAMP levels |
| CSc1ccc2c(c1)C(N1CCN(C)CC1)Cc1ccccc1S2 (centres unmarked) [Methiothepin, methiothepin mesylate] |  |  | 33–60% | no significant differences | 87.2 | 87.1 | 33 to 60 | 62.9 | 63.1 |  |
| NCC(O)c1ccc(O)cc1 (racemic) [octopamine, (±)-octopamine hydrochloride] | only 5-HT significantly increased cAMP levels | only 5-HT significantly increased cAMP levels |  |  |  |  |  |  |  |  |
| NCCc1ccc(O)cc1 [tyramine, tyramine hydrochloride] | only 5-HT significantly increased cAMP levels | only 5-HT significantly increased cAMP levels |  |  |  |  |  |  |  |  |
| CC(N)Cc1c[nH]c2ccc(O)cc12.O=C(O)/C=C\C(=O)O (stereo not drawn) [αm-5-HT, α-methylserotonin maleate] | activated | significantly increased cAMP levels |  |  |  |  |  |  |  | logEC50 (Mean ± SEM) (Msep5-HT7L receptor [1]; 5-HT7L, cAMP production, HEK-293 cells, given as negative log value): −4.86 ± 0.04; EC50 (Msep5-HT7L receptor [1]; 5-HT7L, cAMP production, HEK-293 cells, read-out: EC50): 13.9 µM; activation compared with maximum cAMP stimulation by same concentration of 5-HT (Msep5-HT7L receptor [1]; highest concentration 1 mM, Msep5-HT7L): about 69%; activation compared with maximum cAMP stimulation by 5-HT (Msep5-HT7S receptor [2]): about 35%; logEC50 (Mean ± SEM) (Msep5-HT7S receptor [2]; 5-HT7S, cAMP production, HEK-293 cells, given as negative log value): −5.23 ± 0.29; EC50 (Msep5-HT7S receptor [2]; 5-HT7S, cAMP production, HEK-293 cells, read-out: EC50): 5.9 µM; fold higher agonist potency against Msep5-HT7S than Msep5-HT7L (Msep5-HT7S receptor [2]): 2.3 fold; efficacy fold lower than 5-HT (5-HT7 receptor [6]): about 2 fold; potency fold lower than 5-HT (5-HT7 receptor [6]): more than 190 fold |
| Cc1cccc(S(=O)(=O)N(C)[C@H](C)CCN2CCC(C)CC2)c1 [SB-258719] |  |  | 33–60% | no significant differences | 55.3 | 55 | 33 to 60 | 64 | 64.6 |  |
| Nc1ccc(CCN2CCN(c3cccc(C(F)(F)F)c3)CC2)cc1 [PAPP, 1-[(4-aminophenyl)ethyl]-4-[3-(trifluoromethyl)phenyl] piperazine] |  |  |  |  |  |  |  |  |  | effect on larvae [12]: inhibit the growth or kill the larvae |

From article PMC9820646, “Identification and Pharmacological Characterization of Two Serotonin Type 7 Receptor Isoforms from Mythimna separata” (International Journal of Molecular Sciences, 2022)
